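Grown in 96-well plates, cells were treated for 48 hours with each compound at five concentrations. Insufficient inhibition: endpoint recorded as highest concentration tested. GI50 marks 50% less growth. TGI: total growth inhibition.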 Where only a bound is given, the exact number is not on record here.

Some test systems named below: EKVX NSCLC; K-562 leukemia; HCT-15 colon; SW-620 colon; RXF 393 renal; NCI-H460 lung; MOLT-4 leukemia; DU-145 prostate; LOX IMVI melanoma.
Holding throughout (experiment): NCI anticancer screen, dose series, 48 h

As for `Cc1ccc(/C=C/C(=O)c2cccc3ccccc23)cc1`, the TGI in the experiment on EKVX NSCLC came to 34 µM; in the experiment with K-562 leukemia, 44.3 µM; with HCT-15 colon, 35.3 µM; in the experiment with SW-620 colon it was 26.2 µM; in the experiment on RXF 393 renal it was 26.2 µM; in the experiment on NCI-H460 lung it was 30.7 µM. Also, the TGI with MOLT-4 leukemia amounted to 67.6 µM.

Consider `Cc1ccc(-n2c3nc(=O)[nH]c(=O)c-3cc3cc([N+](=O)[O-])ccc32)cc1`, for which the GI50 in the experiment on EKVX NSCLC is 33.1 µM; in the experiment on K-562 leukemia, 33.4 µM; in the experiment with HCT-15 colon, 25.5 µM; with DU-145 prostate it was 22.9 µM; with SW-620 colon, 4.71 µM; with RXF 393 renal it was 49.9 µM. Besides, the results for the GI50 with NCI-H460 lung, with MOLT-4 leukemia and in the experiment on LOX IMVI melanoma were 17.1 µM, 6.61 µM and 4.77 µM, respectively. The TGI in the experiment on EKVX NSCLC is 67 µM; with K-562 leukemia, more than 100 µM; with HCT-15 colon, more than 100 µM; in the experiment on DU-145 prostate, 55.1 µM; with SW-620 colon it was more than 100 µM; with RXF 393 renal, more than 100 µM. Also, the TGI in the experiment on NCI-H460 lung was more than 100 µM; in the experiment with MOLT-4 leukemia it was more than 100 µM; with LOX IMVI melanoma it was 21.5 µM.

Turning to `C=CC[C@H](C[C@H](C[C@H](C[C@H](C[C@H](C[C@H](C[C@H](C[C@H](C[C@H](C[C@H](CCCCC)OC)OC)OC)OC)OC)OC)OC)OC)OC)OC`, the TGI with EKVX NSCLC, with K-562 leukemia, in the experiment on SW-620 colon, with RXF 393 renal, in the experiment with NCI-H460 lung and with MOLT-4 leukemia was more than 100 µM each time. The TGI in the experiment with LOX IMVI melanoma is more than 100 µM.

In the case of `COc1nc(NC2OC(COC(C)=O)C(OC(C)=O)C(OC(C)=O)C2OC(C)=O)c2c(OC(C)=O)cc(=O)oc2n1` (stereo not drawn), the TGI is more than 100 µM with EKVX NSCLC; more than 100 µM in the experiment with K-562 leukemia; more than 100 µM in the experiment on HCT-15 colon; more than 100 µM in the experiment with SW-620 colon; more than 100 µM with RXF 393 renal; 34.1 µM in the experiment on NCI-H460 lung. Also, the TGI with MOLT-4 leukemia and in the experiment with LOX IMVI melanoma was more than 100 µM each time.

Regarding `CCc1c(OC(C)=O)c2c(NC3OCC(OC(C)=O)C(OC(C)=O)C3OC(C)=O)nc(SC)nc2oc1=O` (stereo not drawn), the TGI in the experiment with EKVX NSCLC, with K-562 leukemia, in the experiment on HCT-15 colon, in the experiment on SW-620 colon, in the experiment on RXF 393 renal and in the experiment with NCI-H460 lung was more than 100 µM in each case. Also, the TGI in the experiment on MOLT-4 leukemia and in the experiment with LOX IMVI melanoma was more than 100 µM throughout.

As to `O=C(Nc1ccccc1-c1nn(C(=S)Nc2ccccc2)c(=S)n(C(=S)Nc2ccccc2)c1=O)C(F)(F)F`, the TGI in the experiment with EKVX NSCLC was 98.2 µM; in the experiment on K-562 leukemia, more than 95.6 µM; with HCT-15 colon it was more than 78.3 µM; in the experiment on SW-620 colon it was more than 64.7 µM; in the experiment with RXF 393 renal, more than 100 µM; in the experiment on NCI-H460 lung, more than 100 µM. Moreover, the values for the TGI in the experiment with MOLT-4 leukemia and in the experiment on LOX IMVI melanoma were more than 77.1 µM and more than 66.1 µM, respectively.

As for `O=c1ccc2ccccc2cc1[O-].O=c1ccc2ccccc2cc1[O-].[O]=[U+2]=[O]`, the GI50 is 10.4 µM in the experiment with EKVX NSCLC; 6.75 µM in the experiment on K-562 leukemia; 17.6 µM with HCT-15 colon; 7.76 µM in the experiment with SW-620 colon; 14.4 µM in the experiment on RXF 393 renal; 13.6 µM in the experiment on NCI-H460 lung. For the same molecule, the GI50 in the experiment on MOLT-4 leukemia was 4.71 µM; in the experiment on LOX IMVI melanoma, 14.1 µM. The TGI in the experiment with EKVX NSCLC is 55.7 µM; in the experiment with K-562 leukemia it was more than 100 µM; in the experiment with HCT-15 colon, more than 100 µM; with SW-620 colon, 39.7 µM; in the experiment on RXF 393 renal it was 40 µM; with NCI-H460 lung, more than 100 µM. Also, the TGI in the experiment on MOLT-4 leukemia was 46.2 µM; in the experiment on LOX IMVI melanoma, more than 100 µM.

With `O=c1c(-c2ccccc2)c2oc(c1-c1ccccc1)CSCc1cccc(c1)CSC2`, the TGI with EKVX NSCLC was more than 100 µM; in the experiment with K-562 leukemia, more than 100 µM; in the experiment on HCT-15 colon it was more than 100 µM; with SW-620 colon, more than 100 µM; in the experiment with RXF 393 renal it was 50.7 µM; in the experiment with NCI-H460 lung it was more than 100 µM. Moreover, the TGI with MOLT-4 leukemia and in the experiment with LOX IMVI melanoma was more than 100 µM throughout.

Regarding `Nc1cc(NN=C(c2ccc(O)cc2)c2ccc(O)cc2)c([N+](=O)[O-])cc1[N+](=O)[O-]`, the GI50 in the experiment with EKVX NSCLC is 2.42 µM; in the experiment with K-562 leukemia, 3.62 µM; in the experiment with HCT-15 colon it was 1.78 µM; in the experiment on DU-145 prostate, 1.64 µM; with SW-620 colon, 1.58 µM; with RXF 393 renal it was 1.59 µM. Besides, the GI50 with NCI-H460 lung is 1.79 µM; in the experiment on MOLT-4 leukemia it was 2.76 µM; with LOX IMVI melanoma, 1.65 µM. The TGI in the experiment on EKVX NSCLC was found to be 7.45 µM; with K-562 leukemia it was 31.7 µM; in the experiment with HCT-15 colon, 4.13 µM; with DU-145 prostate it was 2.99 µM; with SW-620 colon it was 2.93 µM; with RXF 393 renal it was 3.15 µM. Further, the figures for the TGI in the experiment with NCI-H460 lung, in the experiment on MOLT-4 leukemia and in the experiment on LOX IMVI melanoma were 3.47 µM, 7.69 µM and 3.1 µM, respectively.

Regarding `CCCCN(CCCC)C(=O)C(=O)C(C(=O)c1ccc(OC)cc1)c1ccc(OC)cc1` (stereo not drawn), the TGI in the experiment on EKVX NSCLC, in the experiment with K-562 leukemia, with HCT-15 colon, with SW-620 colon, in the experiment with RXF 393 renal and in the experiment on NCI-H460 lung was more than 100 µM in each case. Further, the TGI in the experiment on MOLT-4 leukemia and in the experiment on LOX IMVI melanoma was more than 100 µM in each case.

Consider `CC(=O)O/N=C(/C)c1ccccc1O`, for which the TGI in the experiment with EKVX NSCLC, with K-562 leukemia, in the experiment with SW-620 colon, in the experiment on RXF 393 renal, in the experiment with NCI-H460 lung and with MOLT-4 leukemia was more than 100 µM in each case. Also, the TGI with LOX IMVI melanoma was more than 100 µM.

Regarding `N#C/C(=C\c1cccc(Cl)c1Cl)c1ccccc1`, the TGI was more than 100 µM in the experiment on EKVX NSCLC; more than 100 µM in the experiment on K-562 leukemia; more than 77.6 µM with HCT-15 colon; more than 72.4 µM in the experiment with SW-620 colon; more than 79.2 µM in the experiment with RXF 393 renal; more than 100 µM in the experiment with NCI-H460 lung. For the same molecule, the TGI in the experiment with MOLT-4 leukemia and with LOX IMVI melanoma was more than 100 µM each time.

Take `CN(C)CCn1c2c3ccccc3ccc2c2oc(=O)c3ccccc3c21`: the TGI in the experiment on EKVX NSCLC is 36.4 µM; in the experiment with K-562 leukemia, more than 100 µM; in the experiment with HCT-15 colon, 46.9 µM; in the experiment with SW-620 colon it was 32.4 µM; in the experiment on NCI-H460 lung, 13.4 µM; in the experiment on MOLT-4 leukemia it was 7.25 µM. For the same molecule, the TGI in the experiment on LOX IMVI melanoma was 27.7 µM.

Values taken from PubChem BioAssay (NCI).
